{
  "source": "patent US20200276187A1",
  "about": "“SYSTEMS AND METHODS FOR A[…]-INDUCED EUPHORIA” (Purdue Pharma L.P., priority 2014, published 2020)",
  "system": "rats",
  "assay": "Conditioned Place Preference (CPP) animal model of opioid-induced euphoria",
  "details": "subcutaneous, 6 conditioning days of 30 min sessions, preference assessed on day 8, time in drug-paired minus vehicle-paired chamber",
  "method": "It was administered in a volume of 2 ml/kg. […] The oxycodone was administered as the hydrochloride salt form and was dissolved in saline. The subcutaneous volume for each was 2 ml/kg.\nFor this Example, a 6 day unbiased, counterbalanced paradigm was employed. Innate preference was tested on day 1 (preconditioning day or baseline). On this day, naïve animals (rats) had free access to all three compartments for 30 minutes. The time spent in each chamber was automatically recorded. For conditioning sessions (days 2-7), animals were randomly assigned to compartment pairings for thirty minutes. During the first conditioning session (day 2), animals were randomly divided. […] Control animals received vehicle plus vehicle during each pairing. This conditioning procedure was replicated over five more days (thirty minute sessions for 6 total conditioning days). On day 8, preference was assessed. Each animal was allowed to roam freely about all three compartments for 30 minutes. The removable doors remained opened. The time spent in each compartment was automatically recorded. Conditioned Place Preference (“CPP”) (seconds) is represented as the difference between the time spent in the drug-paired and vehicle-paired chambers on the test day and is indicative of the rewarding properties associated with the compound(s) studied.",
  "data": [
    {"smiles": "COc1ccc2c3c1O[C@H]1C(=O)CC[C@@]4(O)[C@@H](C2)N(C)CC[C@]314", "note": "[oxycodone]", "values": [
      {"measurement": "Conditioned Place Preference (CPP) as compared to vehicle treated controls", "result": "produces a statistically significant CPP"}
    ]}
  ]
}
